Source: the supplement of paper PMC10307832

Experiments:
Assay in all cases: relative viability (nuclei count vs DMSO), 5 days (fraction); higher = more cells survive
201T = test system: 201T
Procedure, shortened: (§1)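 For relative viability, nuclei counts in treated wells were divided by those in vehicle wells. Lung cancer cell lines had been pin-tool dosed in 1536-well plates the day after seeding and cultured for 5 days, then fixed and stained in one step (final 0.05% Triton X-100, 1% formaldehyde, 1 ug/ml Hoechst) and imaged at 4×. Doses were one drug alone or a fixed anchor-drug dose plus five library-drug doses (not always all listed) in √10 steps, and values are duplicate-plate medians.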

ABC-1 = test system: ABC-1
Procedure, shortened: as §1

BEN = test system: BEN
Procedure, shortened: as §1

CAL-12T = test system: CAL-12T
Procedure, shortened: as §1

COR-L 105 = test system: COR-L 105
Procedure, shortened: as §1

COR-L23 = test system: COR-L23
Procedure, shortened: as §1

EKVX = test system: EKVX
Procedure, shortened: as §1

HARA = test system: HARA
Procedure, shortened: as §1

HCC-366 = test system: HCC-366
Procedure, shortened: as §1

LK-2 = test system: LK-2
Procedure, shortened: as §1

LU99A = test system: LU99A
Procedure, shortened: as §1

NCI-H1437 = test system: NCI-H1437
Procedure, shortened: as §1

NCI-H1650 = test system: NCI-H1650
Procedure, shortened: as §1

NCI-H1666 = test system: NCI-H1666
Procedure, shortened: as §1

NCI-H2009 = test system: NCI-H2009
Procedure, shortened: as §1

NCI-H2023 = test system: NCI-H2023
Procedure, shortened: as §1

NCI-H2170 = test system: NCI-H2170
Procedure, shortened: as §1

NCI-H3122 = test system: NCI-H3122
Procedure, shortened: as §1

NCI-H441 = test system: NCI-H441
Procedure, shortened: as §1

NCI-H661 = test system: NCI-H661
Procedure, shortened: as §1

NCI-H727 = test system: NCI-H727
Procedure, shortened: as §1

NCI-H838 = test system: NCI-H838
Procedure, shortened: as §1

PC-14 = test system: PC-14
Procedure, shortened: as §1

SW 900 = test system: SW 900
Procedure, shortened: as §1

C[C@@H]1CN(CC(=O)Nc2ccc3c(c2)Cc2cccc(-c4cc(=O)cc(N5CCOCC5)o4)c2S3)C[C@H](C)O1 + CC(=O)c1c(C)c2cnc(Nc3ccc(N4CCNCC4)cn3)nc2n(C2CCCC2)c1=O [Palbociclib] (partner 0.5 µM) showed a relative viability (201T; first compound 0.04 µM) of 0.345, a relative viability (201T; first compound 0.1265 µM) of 0.35 and a relative viability (201T; first compound 0.4 µM) of 0.361. The relative viability (201T; first compound 4 µM) was 0.336, the relative viability (ABC-1; first compound 0.04 µM) was 0.376 and the relative viability (ABC-1; first compound 0.1265 µM) was 0.673. For the same compound, the relative viability (ABC-1; first compound 0.4 µM) was 0.634, the relative viability (ABC-1; first compound 4 µM) was 0.811 and the relative viability (BEN; first compound 0.04 µM) was 0.513. For the same compound, the relative viability (BEN; first compound 0.1265 µM) was 0.471, the relative viability (BEN; first compound 0.4 µM) was 0.481 and the relative viability (BEN; first compound 4 µM) was 0.452. For the same compound, the relative viability (CAL-12T; first compound 0.04 µM) was 0.53, the relative viability (CAL-12T; first compound 0.1265 µM) was 0.411 and the relative viability (CAL-12T; first compound 0.4 µM) was 0.44. The relative viability (CAL-12T; first compound 4 µM) was 0.28, the relative viability (COR-L 105; first compound 0.04 µM) was 0.391 and the relative viability (COR-L 105; first compound 0.1265 µM) was 0.424. It also gave a relative viability (COR-L 105; first compound 0.4 µM) of 0.397, a relative viability (COR-L 105; first compound 4 µM) of 0.328 and a relative viability (COR-L23; first compound 0.04 µM) of 0.294. For the same compound, the relative viability (COR-L23; first compound 0.1265 µM) was 0.281, the relative viability (COR-L23; first compound 0.4 µM) was 0.379 and the relative viability (COR-L23; first compound 4 µM) was 0.24. It also gave a relative viability (EKVX; first compound 0.04 µM) of 0.342, a relative viability (EKVX; first compound 0.1265 µM) of 0.396 and a relative viability (EKVX; first compound 0.4 µM) of 0.308. It also gave a relative viability (EKVX; first compound 4 µM) of 0.288, a relative viability (HARA; first compound 0.04 µM) of 0.234 and a relative viability (HARA; first compound 0.1265 µM) of 0.186. The relative viability (HARA; first compound 0.4 µM) was 0.272, the relative viability (HARA; first compound 4 µM) was 0.226 and the relative viability (HCC-366; first compound 0.04 µM) was 0.386. It also gave a relative viability (HCC-366; first compound 0.1265 µM) of 0.467, a relative viability (HCC-366; first compound 0.4 µM) of 0.395 and a relative viability (HCC-366; first compound 4 µM) of 0.184. The relative viability (LK-2; first compound 0.04 µM) was 0.6, the relative viability (LK-2; first compound 0.1265 µM) was 0.697 and the relative viability (LK-2; first compound 0.4 µM) was 0.651. The relative viability (LK-2; first compound 4 µM) was 0.792, the relative viability (LU99A; first compound 0.04 µM) was 0.387 and the relative viability (LU99A; first compound 0.1265 µM) was 0.404. For the same compound, the relative viability (LU99A; first compound 0.4 µM) was 0.449, the relative viability (LU99A; first compound 4 µM) was 0.445 and the relative viability (NCI-H1437; first compound 0.04 µM) was 0.309. For the same compound, the relative viability (NCI-H1437; first compound 0.1265 µM) was 0.282, the relative viability (NCI-H1437; first compound 0.4 µM) was 0.327 and the relative viability (NCI-H1437; first compound 4 µM) was 0.255. The relative viability (NCI-H1650; first compound 0.04 µM) was 0.376, the relative viability (NCI-H1650; first compound 0.1265 µM) was 0.397 and the relative viability (NCI-H1650; first compound 0.4 µM) was 0.285. It also gave a relative viability (NCI-H1650; first compound 4 µM) of 0.262, a relative viability (NCI-H1666; first compound 0.04 µM) of 0.584 and a relative viability (NCI-H1666; first compound 0.1265 µM) of 0.616. For the same compound, the relative viability (NCI-H1666; first compound 0.4 µM) was 0.611, the relative viability (NCI-H1666; first compound 4 µM) was 0.662 and the relative viability (NCI-H2009; first compound 0.04 µM) was 0.216. The relative viability (NCI-H2009; first compound 0.1265 µM) was 0.214, the relative viability (NCI-H2009; first compound 0.4 µM) was 0.206 and the relative viability (NCI-H2009; first compound 4 µM) was 0.206. The relative viability (NCI-H2023; first compound 0.04 µM) was 0.426, the relative viability (NCI-H2023; first compound 0.1265 µM) was 0.336 and the relative viability (NCI-H2023; first compound 0.4 µM) was 0.371. For the same compound, the relative viability (NCI-H2023; first compound 4 µM) was 0.288, the relative viability (NCI-H2170; first compound 0.04 µM) was 0.399 and the relative viability (NCI-H2170; first compound 0.1265 µM) was 0.436. For the same compound, the relative viability (NCI-H2170; first compound 0.4 µM) was 0.416, the relative viability (NCI-H2170; first compound 4 µM) was 0.36 and the relative viability (NCI-H3122; first compound 0.04 µM) was 0.214. The relative viability (NCI-H3122; first compound 0.1265 µM) was 0.201, the relative viability (NCI-H3122; first compound 0.4 µM) was 0.176 and the relative viability (NCI-H3122; first compound 4 µM) was 0.161. The relative viability (NCI-H441; first compound 0.04 µM) was 0.257, the relative viability (NCI-H441; first compound 0.1265 µM) was 0.213 and the relative viability (NCI-H441; first compound 0.4 µM) was 0.223. It also gave a relative viability (NCI-H441; first compound 4 µM) of 0.227, a relative viability (NCI-H661; first compound 0.04 µM) of 0.404 and a relative viability (NCI-H661; first compound 0.1265 µM) of 0.442. It also gave a relative viability (NCI-H661; first compound 0.4 µM) of 0.387, a relative viability (NCI-H661; first compound 4 µM) of 0.383 and a relative viability (NCI-H727; first compound 0.04 µM) of 0.852. It also gave a relative viability (NCI-H727; first compound 0.1265 µM) of 0.596, a relative viability (NCI-H727; first compound 0.4 µM) of 0.679 and a relative viability (NCI-H727; first compound 4 µM) of 0.675. For the same compound, the relative viability (NCI-H838; first compound 0.04 µM) was 0.233, the relative viability (NCI-H838; first compound 0.1265 µM) was 0.204 and the relative viability (NCI-H838; first compound 0.4 µM) was 0.207. The relative viability (NCI-H838; first compound 4 µM) was 0.179, the relative viability (PC-14; first compound 0.04 µM) was 0.529 and the relative viability (PC-14; first compound 0.1265 µM) was 0.506. It also gave a relative viability (PC-14; first compound 0.4 µM) of 0.568, a relative viability (PC-14; first compound 4 µM) of 0.423 and a relative viability (SW 900; first compound 0.04 µM) of 0.532. For the same compound, the relative viability (SW 900; first compound 0.1265 µM) was 0.472, the relative viability (SW 900; first compound 0.4 µM) was 0.564 and the relative viability (SW 900; first compound 4 µM) was 0.412.
